Like-named read-outs stand apart in the source and are kept apart here. Values belong to the molecule of their own block, whether it stands above or below them.
Key:
[1] = test system: mice; assay: Reversal of Scopolamine-Induced Transient Disruption of the Memory of a Passive Avoidance Procedure; type: in vivo; conditions: scopolamine 0.6 mg/kg i.p.
Protocol: 1. […] The animals used were mice, to which scopolamine was administered at a dosage of 0.6 mg/kg, i.p.

[2] = molecular target: Muscarine-Cholinergic Receptor (Hippocampus); assay: Muscarine-Cholinergic Receptor Binding, hippocampus; parameters: species or system rat
Protocol: The IC50 values were calculated in the manner described by Y. C.

[3] = Acute Toxicity (LD50); conditions: in vivo, po; mouse
Protocol: The acute toxicity of the test compounds was determined in the conventional manner, in the mouse.

[4] = molecular target: muscarine-cholinergic receptor structures in the rat cortex; assay: Muscarine-Cholinergic Receptor Binding, cortex
Protocol: Also as described in Example 8, the compounds tested bound with high affinity to muscarine-cholinergic receptor structures in the rat cortex.
3. Muscarine-Cholinergic Receptor Binding
This test was performed according to the methods described by M. Watson et al., Life Sci., 32, 3001-3011 (1983) and R. Hammer et al., Nature, 283, 90=92 (1980). The IC50 values were calculated in the manner described by Y. C. Cheng et al., Biochemical Pharmacology, 22, 3099-3108 (1973).

[5] = test system: mice; assay: Hypoxia Tolerance Test; type: in vivo; conditions: 96.5% nitrogen, 3.5% oxygen, effective: at most 1-2 treated animals died when 7-8 untreated had died
Protocol: 2. Hypoxia Tolerance Test
In the method employed, mice which are untreated controls or which have been pretreated with the test substance (p.o.) are placed in respective sealed chambers which are filled with a gas mixture consisting of 96.5% nitrogen and 3.5% oxygen. The observer waits until 7-8 of the untreated animals have died. This occurs within 6-7 minutes. If the test substance is effective, at most 1-2 of the treated animals may have died.

[6] = printed across the Hippocampus and Cortex columns, ineffective up to the stated concentration, read-out: Muscarine Receptor Binding, IC50, Hippocampus and Cortex (ineffective up to)
[7] = Hippocampus, read-out: Muscarine Receptor Binding, IC50, Hippocampus

IC50 [2, 6]: > 100 µM
SMILES: COc1ccc(C(=O)N2CCCC2=O)cc1 [Aniracetam, 1-(p-methoxybenzoyl)-pyrrolidin-2-one, reference compound]
Scopolamine-Induced Memory Disruption, % Inhibition ([1]; 30 mg/kg p.o.): 29.7%
Scopolamine-Induced Memory Disruption, % Inhibition ([1]; 50 mg/kg p.o.): 42.6%
Scopolamine-Induced Memory Disruption, % Inhibition ([1]; 100 mg/kg p.o.): 49.3%

IC50 [2, 7]: > 100 µM
SMILES: CNC(=O)NCC1CC(=O)N(Cc2ccccc2)C1 (centres unmarked) [Example 7]
Scopolamine-Induced Memory Disruption, % Inhibition ([1]; 100 mg/kg p.o.): 60%

SMILES: CN1CCN(C(=O)NCC2CC(=O)N(Cc3ccccc3)C2)CC1 (centres unmarked) [Example 1, 4-(N-Methylpiperazinyl-carbonylaminomethyl)-1-benzylpyrrolidin-2-one]
LD50 at 336 h [3]: 1500 to 2000 mg/kg
Scopolamine-Induced Memory Disruption, % Inhibition ([1]; 10 mg/kg p.o.): 43%

IC50 [4]: > 10 µM
IC50 [2, 7]: 26 µM
SMILES: Cc1ccc(CN2CC(CNC(=O)N3CCN(C)CC3)CC2=O)cc1 (centres unmarked) [Example 13]
Scopolamine-Induced Memory Disruption, % Inhibition ([1]; 50 mg/kg p.o.): 50%

IC50 [2, 7]: > 100 µM
SMILES: CN1CCN(C(=O)N(C)CC2CC(=O)N(Cc3ccccc3)C2)CC1 (centres unmarked) [Example 17]
Scopolamine-Induced Memory Disruption, % Inhibition ([1]; 30 mg/kg p.o.): 45%

SMILES: NC(=O)CN1CCCC1=O [Piracetam, 1-carbomyl-methyl-pyrrolidin-2-one, reference compound]
Hypoxia Tolerance ([5]; 150 mg/kg p.o.): effective
Scopolamine-Induced Memory Disruption, % Inhibition ([1]; 100 mg/kg p.o.): 42.9%
Scopolamine-Induced Memory Disruption, % Inhibition ([1]; 200 mg/kg p.o.): 53.7%
Scopolamine-Induced Memory Disruption, % Inhibition ([1]; 500 mg/kg p.o.): 50.0%
IC50 [2, 6]: > 1000 µM

SMILES: O=C(NCC1CC(=O)N(Cc2ccccc2)C1)Nc1ccc(Cl)cc1 (centres unmarked) [Example 5, 4-(p-Chlorophenylamino-carbonylaminomethyl)-1-benzylpyrrolidin-2-one]
Hypoxia Tolerance ([5]; 100 mg/kg p.o.): effective
LD50 at 336 h [3]: > 2000 mg/kg
Scopolamine-Induced Memory Disruption, % Inhibition ([1]; 5 mg/kg p.o.): 50%
Scopolamine-Induced Memory Disruption, % Inhibition ([1]; 10 mg/kg p.o.): 70%
IC50 [2, 7]: 93 µM
